Test in all cases: relative viability (nuclei count vs DMSO), 5 days (fraction); higher = more cells survive
Compound in the assay “JZL-184 + Palbociclib”: C1CN(CCC1C(C2=CC3=C(C=C2)OCO3)(C4=CC5=C(C=C4)OCO5)O)C(=O)OC6=CC=C(C=C6)[N+](=O)[O-] [JZL-184] + CC(=O)c1c(C)c2cnc(Nc3ccc(N4CCNCC4)cn3)nc2n(C2CCCC2)c1=O [Palbociclib] (partner 0.5 µM)
The procedure, abridged: (§1)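 Nuclei were stained with Hoechst during a one-step fixation (final 0.05% Triton X-100, 1% formaldehyde, 1 ug/ml Hoechst) carried out 5 days after dosing, then counted on 4× images. The cells, lung cancer lines in 1536-well plates, had been dosed by pin tool the day after seeding with one drug alone or a fixed anchor-drug dose plus five library-drug doses (not always all listed) in √10 steps. Relative viability is the nuclei count in treated wells divided by that in vehicle wells, and each value is the median of duplicate plates.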

Compound in the assay “JZL-184 + Luminespib”: C1CN(CCC1C(C2=CC3=C(C=C2)OCO3)(C4=CC5=C(C=C4)OCO5)O)C(=O)OC6=CC=C(C=C6)[N+](=O)[O-] [JZL-184] + CCNC(=O)c1noc(-c2cc(C(C)C)c(O)cc2O)c1-c1ccc(CN2CCOCC2)cc1 [Luminespib] (partner 0.01 µM)
In short, it runs like this:
as §1

Compound in the assay “JZL-184 + Linsitinib”: C1CN(CCC1C(C2=CC3=C(C=C2)OCO3)(C4=CC5=C(C=C4)OCO5)O)C(=O)OC6=CC=C(C=C6)[N+](=O)[O-] [JZL-184] + C[C@]1(O)C[C@@H](c2nc(-c3ccc4ccc(-c5ccccc5)nc4c3)c3c(N)nccn32)C1 [Linsitinib] (partner 1 µM)
The procedure, abridged:
as §1

Compound in the assay “JZL-184 + AZD7762”: C1CN(CCC1C(C2=CC3=C(C=C2)OCO3)(C4=CC5=C(C=C4)OCO5)O)C(=O)OC6=CC=C(C=C6)[N+](=O)[O-] [JZL-184] + NC(=O)Nc1cc(-c2cccc(F)c2)sc1C(=O)N[C@H]1CCCNC1 [AZD7762] (partner 0.2 µM)
In short, it runs like this: as §1

Compound in the assay “JZL-184 + Olaparib”: C1CN(CCC1C(C2=CC3=C(C=C2)OCO3)(C4=CC5=C(C=C4)OCO5)O)C(=O)OC6=CC=C(C=C6)[N+](=O)[O-] [JZL-184] + O=C(c1cc(Cc2n[nH]c(=O)c3ccccc23)ccc1F)N1CCN(C(=O)C2CC2)CC1 [Olaparib] (partner 8 µM)
The procedure, abridged:
as §1

From the supplement of paper PMC10307832 come the findings set out here.

NCI-H460: the relative viability with JZL-184 + Palbociclib (first compound 0.04 µM) was 0.147; with JZL-184 + Palbociclib (first compound 0.4 µM), 0.0967; with JZL-184 + Palbociclib (first compound 1.265 µM) it was 0.149; with JZL-184 + Palbociclib (first compound 4 µM), 0.201; with JZL-184 + Luminespib (first compound 0.04 µM), 0.0429; in the assay with JZL-184 + Luminespib (first compound 0.4 µM), 0.0344. In addition, the relative viability stood at 0.0404 in the assay with JZL-184 + Luminespib (first compound 1.265 µM); 0.0362 with JZL-184 + Luminespib (first compound 4 µM); 1.03 with JZL-184 + Linsitinib (first compound 0.04 µM); 0.623 in the assay with JZL-184 + Linsitinib (first compound 0.4 µM); 0.87 with JZL-184 + Linsitinib (first compound 1.265 µM); 0.72 in the assay with JZL-184 + Linsitinib (first compound 4 µM). In addition, the relative viability was found to be 0.639 in the assay with JZL-184 + AZD7762 (first compound 0.04 µM); 0.617 in the assay with JZL-184 + AZD7762 (first compound 0.4 µM); 0.659 with JZL-184 + AZD7762 (first compound 1.265 µM); 0.599 in the assay with JZL-184 + AZD7762 (first compound 4 µM); 0.337 with JZL-184 + Olaparib (first compound 0.04 µM); 0.427 with JZL-184 + Olaparib (first compound 0.4 µM). The values for the relative viability in the assay with JZL-184 + Olaparib (first compound 1.265 µM) and with JZL-184 + Olaparib (first compound 4 µM) were 0.458 and 0.394, respectively.

Regarding NCI-H647, the relative viability with JZL-184 + Palbociclib (first compound 0.04 µM) came out at 0.369; with JZL-184 + Palbociclib (first compound 0.4 µM), 0.285; in the assay with JZL-184 + Palbociclib (first compound 1.265 µM), 0.407; in the assay with JZL-184 + Palbociclib (first compound 4 µM), 0.359; with JZL-184 + Luminespib (first compound 0.04 µM) it was 0.286; in the assay with JZL-184 + Luminespib (first compound 0.4 µM) it was 0.128. Moreover, the relative viability with JZL-184 + Luminespib (first compound 1.265 µM) is 0.0998; with JZL-184 + Luminespib (first compound 4 µM), 0.216; with JZL-184 + Linsitinib (first compound 0.04 µM), 1.18; in the assay with JZL-184 + Linsitinib (first compound 0.4 µM) it was 1.06; with JZL-184 + Linsitinib (first compound 1.265 µM), 1.19; in the assay with JZL-184 + Linsitinib (first compound 4 µM), 1.26. Further, the relative viability stood at 0.45 with JZL-184 + AZD7762 (first compound 0.04 µM); 0.391 with JZL-184 + AZD7762 (first compound 0.4 µM); 0.426 with JZL-184 + AZD7762 (first compound 1.265 µM); 0.451 with JZL-184 + AZD7762 (first compound 4 µM); 0.654 with JZL-184 + Olaparib (first compound 0.04 µM); 0.481 with JZL-184 + Olaparib (first compound 0.4 µM). The values for the relative viability with JZL-184 + Olaparib (first compound 1.265 µM) and with JZL-184 + Olaparib (first compound 4 µM) were 0.471 and 0.564, respectively.

For the cell line NCI-H650, the relative viability with JZL-184 + Palbociclib (first compound 0.04 µM) worked out at 0.358; with JZL-184 + Palbociclib (first compound 0.4 µM) it was 0.292; with JZL-184 + Palbociclib (first compound 1.265 µM), 0.321; in the assay with JZL-184 + Palbociclib (first compound 4 µM) it was 0.317; with JZL-184 + Luminespib (first compound 0.04 µM), 0.854; with JZL-184 + Luminespib (first compound 0.4 µM) it was 0.647. Also, the relative viability with JZL-184 + Luminespib (first compound 1.265 µM) was 0.802; with JZL-184 + Luminespib (first compound 4 µM) it was 0.806; with JZL-184 + Linsitinib (first compound 0.04 µM), 0.966; with JZL-184 + Linsitinib (first compound 0.4 µM) it was 0.62; in the assay with JZL-184 + Linsitinib (first compound 1.265 µM), 0.933; with JZL-184 + Linsitinib (first compound 4 µM), 0.747. The relative viability with JZL-184 + AZD7762 (first compound 0.04 µM) was 0.997; in the assay with JZL-184 + AZD7762 (first compound 0.4 µM) it was 1.1; with JZL-184 + AZD7762 (first compound 1.265 µM), 1.07; in the assay with JZL-184 + AZD7762 (first compound 4 µM), 0.988; in the assay with JZL-184 + Olaparib (first compound 0.04 µM), 0.427; with JZL-184 + Olaparib (first compound 0.4 µM), 0.369. Besides, the relative viability in the assay with JZL-184 + Olaparib (first compound 1.265 µM) worked out at 0.438; in the assay with JZL-184 + Olaparib (first compound 4 µM) it was 0.381.

In the case of NCI-H727, the relative viability in the assay with JZL-184 + Palbociclib (first compound 0.04 µM) is 0.64; in the assay with JZL-184 + Palbociclib (first compound 0.4 µM), 0.708; with JZL-184 + Palbociclib (first compound 1.265 µM), 0.63; with JZL-184 + Palbociclib (first compound 4 µM), 0.738; in the assay with JZL-184 + Luminespib (first compound 0.04 µM) it was 0.343; with JZL-184 + Luminespib (first compound 0.4 µM), 0.286. The relative viability with JZL-184 + Luminespib (first compound 1.265 µM) stood at 0.375; with JZL-184 + Luminespib (first compound 4 µM) it was 0.355; in the assay with JZL-184 + Linsitinib (first compound 0.04 µM) it was 0.203; with JZL-184 + Linsitinib (first compound 0.4 µM) it was 0.314; with JZL-184 + Linsitinib (first compound 1.265 µM), 0.233; in the assay with JZL-184 + Linsitinib (first compound 4 µM), 0.373. Moreover, the relative viability with JZL-184 + AZD7762 (first compound 0.04 µM) turned out to be 0.493; in the assay with JZL-184 + AZD7762 (first compound 0.4 µM), 0.464; with JZL-184 + AZD7762 (first compound 1.265 µM), 0.621; with JZL-184 + AZD7762 (first compound 4 µM) it was 0.595; in the assay with JZL-184 + Olaparib (first compound 0.04 µM), 0.661; in the assay with JZL-184 + Olaparib (first compound 0.4 µM), 0.723. Further, the relative viability with JZL-184 + Olaparib (first compound 1.265 µM) was determined as 0.747; with JZL-184 + Olaparib (first compound 4 µM), 0.552.

Turning to NCI-H838, the relative viability with JZL-184 + Palbociclib (first compound 0.04 µM) was determined as 0.22; with JZL-184 + Palbociclib (first compound 0.4 µM) it was 0.259; with JZL-184 + Palbociclib (first compound 1.265 µM) it was 0.235; with JZL-184 + Palbociclib (first compound 4 µM), 0.199; with JZL-184 + Luminespib (first compound 0.04 µM), 0.287; in the assay with JZL-184 + Luminespib (first compound 0.4 µM), 0.281. In addition, the relative viability with JZL-184 + Luminespib (first compound 1.265 µM) was 0.274; in the assay with JZL-184 + Luminespib (first compound 4 µM), 0.258; with JZL-184 + Linsitinib (first compound 0.04 µM), 1.23; with JZL-184 + Linsitinib (first compound 0.4 µM), 1.05; with JZL-184 + Linsitinib (first compound 1.265 µM), 0.98; with JZL-184 + Linsitinib (first compound 4 µM), 0.98. Also, the relative viability amounted to 1.01 with JZL-184 + AZD7762 (first compound 0.04 µM); 0.896 with JZL-184 + AZD7762 (first compound 0.4 µM); 0.929 in the assay with JZL-184 + AZD7762 (first compound 1.265 µM); 0.915 in the assay with JZL-184 + AZD7762 (first compound 4 µM); 0.994 with JZL-184 + Olaparib (first compound 0.04 µM); 0.737 in the assay with JZL-184 + Olaparib (first compound 0.4 µM). For the same cell line, the relative viability amounted to 0.766 in the assay with JZL-184 + Olaparib (first compound 1.265 µM) and 0.722 with JZL-184 + Olaparib (first compound 4 µM).

For the cell line NCI-H1355, the relative viability with JZL-184 + Palbociclib (first compound 0.04 µM) is 0.376; in the assay with JZL-184 + Palbociclib (first compound 0.4 µM), 0.381; in the assay with JZL-184 + Palbociclib (first compound 1.265 µM), 0.423; with JZL-184 + Palbociclib (first compound 4 µM), 0.4; with JZL-184 + Luminespib (first compound 0.04 µM) it was 0.713; with JZL-184 + Luminespib (first compound 0.4 µM) it was 0.705. Besides, the relative viability turned out to be 0.828 with JZL-184 + Luminespib (first compound 1.265 µM); 0.69 with JZL-184 + Luminespib (first compound 4 µM); 0.606 with JZL-184 + Linsitinib (first compound 0.04 µM); 0.856 with JZL-184 + Linsitinib (first compound 0.4 µM); 0.842 with JZL-184 + Linsitinib (first compound 1.265 µM); 0.8 in the assay with JZL-184 + Linsitinib (first compound 4 µM). For the same cell line, the relative viability with JZL-184 + AZD7762 (first compound 0.04 µM) was determined as 0.922; in the assay with JZL-184 + AZD7762 (first compound 0.4 µM) it was 0.674; with JZL-184 + AZD7762 (first compound 1.265 µM), 0.769; with JZL-184 + AZD7762 (first compound 4 µM), 0.733; in the assay with JZL-184 + Olaparib (first compound 0.04 µM) it was 0.775; with JZL-184 + Olaparib (first compound 0.4 µM) it was 0.708. For the same cell line, the relative viability in the assay with JZL-184 + Olaparib (first compound 1.265 µM) was determined as 0.78; with JZL-184 + Olaparib (first compound 4 µM), 0.707.

As to NCI-H1395, the relative viability with JZL-184 + Palbociclib (first compound 0.04 µM) was 0.661; in the assay with JZL-184 + Palbociclib (first compound 0.4 µM), 0.598; in the assay with JZL-184 + Palbociclib (first compound 1.265 µM) it was 0.63; with JZL-184 + Palbociclib (first compound 4 µM), 0.573; with JZL-184 + Luminespib (first compound 0.04 µM), 0.63; with JZL-184 + Luminespib (first compound 0.4 µM) it was 0.788. The relative viability with JZL-184 + Luminespib (first compound 1.265 µM) is 0.675; in the assay with JZL-184 + Luminespib (first compound 4 µM), 0.738; with JZL-184 + Linsitinib (first compound 0.04 µM), 1.12; with JZL-184 + Linsitinib (first compound 0.4 µM) it was 1.4; in the assay with JZL-184 + Linsitinib (first compound 1.265 µM), 1.19; with JZL-184 + Linsitinib (first compound 4 µM), 0.99. The relative viability with JZL-184 + AZD7762 (first compound 0.04 µM) was determined as 0.429; with JZL-184 + AZD7762 (first compound 0.4 µM) it was 0.413; with JZL-184 + AZD7762 (first compound 1.265 µM) it was 0.396; with JZL-184 + AZD7762 (first compound 4 µM) it was 0.403; in the assay with JZL-184 + Olaparib (first compound 0.04 µM), 0.486; with JZL-184 + Olaparib (first compound 0.4 µM), 0.458. The relative viability worked out at 0.407 in the assay with JZL-184 + Olaparib (first compound 1.265 µM) and 0.444 with JZL-184 + Olaparib (first compound 4 µM).
